Experimental data from article doi:10.1101/2020.01.14.906396v1 (biorxiv, 2020).

Target: T1, K2P2.1 (TREK-1, KCNK2) (Homo sapiens, UniProt O95069)
T1 sequence (O95069 1-426): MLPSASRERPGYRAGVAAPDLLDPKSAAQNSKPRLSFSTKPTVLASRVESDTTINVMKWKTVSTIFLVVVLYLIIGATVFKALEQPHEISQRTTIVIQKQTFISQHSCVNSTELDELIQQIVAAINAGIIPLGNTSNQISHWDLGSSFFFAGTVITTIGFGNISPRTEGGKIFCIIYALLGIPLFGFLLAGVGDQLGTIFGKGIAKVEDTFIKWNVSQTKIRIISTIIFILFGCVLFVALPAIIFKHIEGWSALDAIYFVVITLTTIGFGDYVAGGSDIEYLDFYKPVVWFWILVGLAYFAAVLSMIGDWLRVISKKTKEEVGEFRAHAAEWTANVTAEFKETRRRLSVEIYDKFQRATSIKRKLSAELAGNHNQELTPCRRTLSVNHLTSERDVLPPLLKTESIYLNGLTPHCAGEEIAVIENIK
Experiment: two-electrode voltage clamp, Xenopus oocytes
Assay type: cell-based

| SMILES | EC50 [µM] |
| --- | --- |
| Cc1ccc(C(C)C)cc1O [carvacrol, 2-methyl-5-(propan-2-yl) phenol] | 200 ± 60 |
| CC(C)[C@@H]1CC[C@@H](C)C[C@H]1O [menthol] | 3800 ± 1000 |
| Cc1ccc(C(C)C)c(O)c1 [thymol] | 430 ± 240 |
